# ChEMBL document CHEMBL5518232, “Discovery of New Tricyclic Oxime Sampangine Derivatives as Potent Antifungal Agents for the Treatment of Cryptococcosis and Candidiasis” (J Med Chem, 2024)
# Activity calls are given as the source filed them. No cut-off for these calls is given here.
# How the values were obtained:
# Candida albicans [1] = experiment: Inhibition of biofilm formation in Candida albicans 0304103 at 2 ug/ml incubated for 32 hrs by microplate based analysis; assay type: functional, organism-based; settings: dose 2.0 µg/ml
# Candida tropicalis = experiment: Antifungal activity against Candida tropicalis 10186 assessed as reduction in fungal growth incubated for 48 hrs by liquid based microdilution method; assay type: functional
# Candida albicans [2] = experiment: Antifungal activity against Candida albicans 0304103 assessed as downregulation of TEC1 expression at 8 ug/ml incubated for 24 hrs in presence of (Z)-8-(methoxyimino)-3-methylthieno[3',2':4,5]benzo[1,2-d]isoxazol-4(8H)-one by RT-PCR analysis; assay type: functional, organism-based; settings: dose 8.0 µg/ml
# Candida albicans [3] = experiment: Synergistic antifungal activity against Candida albicans 0304103 assessed as inhibition of fungal growth incubated for 48 hrs in presence of (Z)-8-(methoxyimino)benzo[1,2-b:4,5-b']dithiophen-4(8H)-one by checkerboard microdilution assay; assay type: functional
# Candida albicans [4] = experiment: Synergistic antifungal activity against Candida albicans 0304103 assessed as inhibition of fungal growth incubated for 48 hrs in presence of (Z)-9-(hydroxyimino)-3-methylnaphtho[2,3-d]isoxazol-4(9H)-one by checkerboard microdilution assay; assay type: functional
# Candida albicans [5] = experiment: Synergistic antifungal activity against Candida albicans 0304103 assessed as inhibition of fungal growth incubated for 48 hrs in presence of (Z)-8-(methoxyimino)-3-propylthieno[3',2':4,5]benzo[1,2-d]isoxazol-4(8H)-one by checkerboard microdilution assay; assay type: functional
# Candida albicans [6] = experiment: Synergistic antifungal activity against Candida albicans 0304103 assessed as inhibition of fungal growth incubated for 48 hrs in presence of (Z)-8-(hydroxyimino)-3-methylthieno[3',2':4,5]benzo[1,2-d]isoxazol-4(8H)-one by checkerboard microdilution assay; assay type: functional
# Candida albicans [7] = experiment: Antifungal activity against Candida albicans 0304103 assessed as downregulation of CDR1 expression at 8 ug/ml incubated for 24 hrs in presence of (Z)-8-(methoxyimino)-3-methylthieno[3',2':4,5]benzo[1,2-d]isoxazol-4(8H)-one by RT-PCR analysis; assay type: functional, organism-based; settings: dose 8.0 µg/ml
# Candida albicans [8] = experiment: Synergistic antifungal activity against Candida albicans 0304103 assessed as inhibition of fungal growth incubated for 48 hrs in presence of (Z)-3-ethyl-8-(methoxyimino)thieno[3',2':4,5]benzo[1,2-d]isoxazol-4(8H)-one by checkerboard microdilution assay; assay type: functional
# Candida albicans [9] = experiment: Synergistic antifungal activity against Candida albicans 0304103 assessed as inhibition of fungal growth incubated for 48 hrs in presence of (Z)-8-(ethoxyimino)-3-methylthieno[3',2':4,5]benzo[1,2-d]isoxazol-4(8H)-one by checkerboard microdilution assay; assay type: functional
# Candida albicans [10] = experiment: Synergistic antifungal activity against Candida albicans 0304103 assessed as inhibition of fungal growth incubated for 48 hrs in presence of (Z)-8-(isopropoxyimino)-3-methylthieno[3',2':4,5]benzo[1,2-d]isoxazol-4(8H)-one by checkerboard microdilution assay; assay type: functional
# [11] = Antifungal activity against Cryptococcus gattii VGI ATCC 14116 assessed as reduction in fungal growth incubated for 72 hrs by liquid based microdilution method; assay type: functional
# Cryptococcus neoformans [12] = experiment: Inhibition of biofilm formation in Cryptococcus neoformans H99 at 64 ug/ml incubated for 24 hrs by microplate based analysis relative to control; assay type: functional
# Candida albicans [13] = experiment: Inhibition of biofilm formation in Candida albicans 0304103 at 8 ug/ml incubated for 24 hrs in presence of (Z)-8-(methoxyimino)-3-methylthieno[3',2':4,5]benzo[1,2-d]isoxazol-4(8H)-one by microplate based analysis relative to control; assay type: functional
# Cryptococcus neoformans [14] = experiment: Antifungal activity against Cryptococcus neoformans H99 assessed as reduction in fungal growth incubated for 72 hrs by liquid based microdilution method; assay type: functional
# Cryptococcus neoformans [15] = experiment: Antifungal activity against Cryptococcus neoformans ATCC 34877 assessed as reduction in fungal growth incubated for 72 hrs by liquid based microdilution method; assay type: functional
# Candida albicans [16] = experiment: Synergistic antifungal activity against Candida albicans 0304103 assessed as inhibition of fungal growth incubated for 48 hrs in presence of (Z)-8-(methoxyimino)-3-methylbenzofuro[6,5-d]isoxazol-4(8H)-one by checkerboard microdilution assay; assay type: functional
# Candida albicans [17] = experiment: Synergistic antifungal activity against Candida albicans 0304103 assessed as inhibition of fungal growth incubated for 48 hrs in presence of (Z)-9-(methoxyimino)-3-methylnaphtho[2,3-d]isoxazol-4(9H)-one by checkerboard microdilution assay; assay type: functional
# Nakaseomyces glabratus = experiment: Antifungal activity against Candida glabrata 9073 assessed as reduction in fungal growth incubated for 48 hrs by liquid based microdilution method; assay type: functional
# Candida albicans [18] = experiment: Synergistic antifungal activity against Candida albicans 0304103 assessed as inhibition of fungal growth incubated for 48 hrs in presence of ((Z)-8-(methoxyimino)-3-methylthieno[3',2':4,5]benzo[1,2-d]isoxazol-4(8H)-one by checkerboard microdilution assay; assay type: functional
# Candida albicans [19] = experiment: Synergistic antifungal activity against Candida albicans 0304103 assessed as inhibition of fungal growth incubated for 48 hrs in presence of (Z)-9-(ethoxyimino)-3-methylnaphtho[2,3-d]isoxazol-4(9H)-one by checkerboard microdilution assay; assay type: functional
# Candida albicans [20] = experiment: Antifungal activity against Candida albicans 0304103 assessed as reversal of ERG11 expression by measuring fold change at 8 ug/ml incubated for 24 hrs in presence of (Z)-8-(methoxyimino)-3-methylthieno[3',2':4,5]benzo[1,2-d]isoxazol-4(8H)-one by RT-PCR analysis (reference value: 8.8); assay type: functional; settings: dose 8 µg/ml
# Candida albicans [21] = experiment: Antifungal activity against Candida albicans 0304103 assessed as downregulation of ERG11 expression at 8 ug/ml incubated for 24 hrs in presence of (Z)-8-(methoxyimino)-3-methylthieno[3',2':4,5]benzo[1,2-d]isoxazol-4(8H)-one by RT-PCR analysis; assay type: functional, organism-based; settings: dose 8.0 µg/ml
# Candida albicans [22] = experiment: Antifungal activity against Candida albicans 0304103 assessed as downregulation of APH5 expression at 8 ug/ml incubated for 24 hrs in presence of (Z)-8-(methoxyimino)-3-methylthieno[3',2':4,5]benzo[1,2-d]isoxazol-4(8H)-one by RT-PCR analysis; assay type: functional, organism-based; settings: dose 8.0 µg/ml
# Candida albicans [23] = experiment: In vivo antifungal activity against Candida albicans SC5314 infected in […] ICR mouse model assessed as reduction in fungal burden in kidney at 0.5 mg/kg, ip measured for 5 days in presence of (Z)-8-(methoxyimino)-3-methylthieno[3',2':4,5]benzo[1,2-d]isoxazol-4(8H)-one; assay type: functional; settings: time 5 day
# Candida albicans [24] = experiment: Antifungal activity against Candida albicans 0304103 assessed as downregulation of RLM1 expression at 8 ug/ml incubated for 24 hrs in presence of (Z)-8-(methoxyimino)-3-methylthieno[3',2':4,5]benzo[1,2-d]isoxazol-4(8H)-one by RT-PCR analysis; assay type: functional, organism-based; settings: dose 8.0 µg/ml
# Candida albicans [25] = experiment: Antifungal activity against Candida albicans 0304103 assessed as downregulation of GCA1 expression at 8 ug/ml incubated for 24 hrs in presence of (Z)-8-(methoxyimino)-3-methylthieno[3',2':4,5]benzo[1,2-d]isoxazol-4(8H)-one by RT-PCR analysis; assay type: functional, organism-based; settings: dose 8.0 µg/ml
# Candida albicans [26] = experiment: Synergistic antifungal activity against Candida albicans 0304103 assessed as inhibition of fungal growth incubated for 48 hrs in presence of (4Z,8Z)-benzo[1,2-b:4,5-b']dithiophene-4,8-dione O,O-dimethyl dioxime by checkerboard microdilution assay; assay type: functional
# Candida albicans [27] = experiment: Antifungal activity against Candida albicans 0304103 assessed as downregulation of GCA2 expression at 8 ug/ml incubated for 24 hrs in presence of (Z)-8-(methoxyimino)-3-methylthieno[3',2':4,5]benzo[1,2-d]isoxazol-4(8H)-one by RT-PCR analysis; assay type: functional, organism-based; settings: dose 8.0 µg/ml
# Candida albicans [28] = experiment: Antifungal activity against Candida albicans 0304103 assessed as reduction in fungal growth incubated for 48 hrs by liquid based microdilution method; assay type: functional
# Candida albicans [29] = experiment: In vivo antifungal activity against Candida albicans 0304103 infected in […] ICR mouse model assessed as reduction in fungal burden in kidney at 5 mg/kg, ip measured for 5 days in presence of (Z)-8-(methoxyimino)-3-methylthieno[3',2':4,5]benzo[1,2-d]isoxazol-4(8H)-one (reference value: 7.37 log10CFU/g); assay type: functional; settings: time 5 day
# Candida albicans [30] = experiment: Antifungal activity against Candida albicans SC5314 assessed as reduction in fungal growth incubated for 48 hrs by liquid based microdilution method; assay type: functional
smiles,measurement,setting,value
OC(Cn1cncn1)(Cn1cncn1)c1ccc(F)cc1F [FLUCONAZOLE],inhibition,Candida albicans [1],inactive
same,MIC80,Candida tropicalis,> 64 µg/mL
same,Activity,Candida albicans [2],Active
same,MIC80,Candida albicans [3],1 µg/mL
same,MIC80,Candida albicans [4],2 µg/mL
same,MIC80,Candida albicans [5],8 µg/mL
same,MIC80,Candida albicans [6],4 µg/mL
same,Activity,Candida albicans [7],Active
same,MIC80,Candida albicans [8],1 µg/mL
same,MIC80,Candida albicans [9],1 µg/mL
same,MIC80,Candida albicans [10],2 µg/mL
same,MIC80,[11],1 µg/mL
same,inhibition at 64 µg/mL,Cryptococcus neoformans [12],80%
same,inhibition at 8 µg/mL,Candida albicans [13],50%
same,MIC80,Cryptococcus neoformans [14],2 µg/mL
same,MIC80,Cryptococcus neoformans [15],1 µg/mL
same,MIC80,Candida albicans [16],2 µg/mL
same,MIC80,Candida albicans [17],1 µg/mL
same,MIC80,Nakaseomyces glabratus,32 µg/mL
same,MIC80,Candida albicans [18],1 µg/mL
same,MIC80,Candida albicans [19],0.5 µg/mL
same,fold change (FC),Candida albicans [20],0.8
same,Activity,Candida albicans [21],Active
same,Activity,Candida albicans [22],Active
same,Activity,Candida albicans [23],5.02 log10CFU/g
same,Activity,Candida albicans [24],Active
same,Activity,Candida albicans [25],Active
same,MIC80,Candida albicans [26],> 64 µg/mL
same,Activity,Candida albicans [27],Active
same,MIC80,Candida albicans [28],> 64 µg/mL
same,Activity,Candida albicans [29],5.31 log10CFU/g
same,MIC80,Candida albicans [30],0.5 µg/mL
